Data: ChEMBL document CHEMBL1649397, “Synthesis of a-factor peptide from Saccharomyces cerevisiae and photoactive analogues via Fmoc solid phase methodology” (Bioorg Med Chem, 2011)
Calls of active or inactive are those of the source. No cut-off for these calls is given here. Where a SMILES comes first, the peptide text is derived from it. The star is where a group is joined. X3 = C/C(=C/C*)CC/C=C(\C)COCc1cccc(C(=O)c2ccccc2)c1; X2 = C/C(=C/C*)COCc1cccc(C(=O)c2ccccc2)c1; X1 = CC(C)=CCC/C(C)=C/CC/C(C)=C\C*

Columns and labels:
Assay type in all cases: functional, organism-based
Saccharomyces cerevisiae [1] = test: Growth arrest against Saccharomyces cerevisiae RC757 assessed as zone of inhibition after overnight incubation
Saccharomyces cerevisiae [2] = test: Growth arrest against Saccharomyces cerevisiae LM102 assessed as zone of inhibition after overnight incubation
Saccharomyces cerevisiae [3] = test: Growth arrest against Saccharomyces cerevisiae RC757 assessed as zone of inhibition at 0.25 ng after overnight incubation
Saccharomyces cerevisiae [4] = test: Growth arrest against Saccharomyces cerevisiae RC757 assessed as zone of inhibition at 0.50 ng after overnight incubation

## CC[C@H](C)[C@H](NC(=O)[C@@H](NC(=O)[C@@H](N)Cc1ccc(O)cc1)[C@@H](C)CC)C(=O)N[C@@H](CCCCN)C(=O)NCC(=O)N[C@H](C(=O)N[C@@H](Cc1ccccc1)C(=O)N[C@@H](Cc1c[nH]c2ccccc12)C(=O)N[C@@H](CC(=O)O)C(=O)N1CCC[C@H]1C(=O)N[C@@H](C)C(=O)N[C@@H](CSC/C=C(/C)CC/C=C(\C)CCC=C(C)C)C(=O)OC)C(C)C (H-YIIKGVFWDPAC(X1)-OMe)
Saccharomyces cerevisiae [1]
  inhibition zone (IZ): Active
Saccharomyces cerevisiae [2]
  inhibition zone (IZ): inactive

## CC[C@H](C)[C@H](NC(=O)[C@@H](NC(=O)[C@@H](N)Cc1ccc(O)cc1)[C@@H](C)CC)C(=O)N[C@@H](CCCCN)C(=O)NCC(=O)N[C@H](C(=O)N[C@@H](Cc1ccccc1)C(=O)N[C@@H](Cc1c[nH]c2ccccc12)C(=O)N[C@@H](CC(=O)O)C(=O)N1CCC[C@H]1C(=O)N[C@@H](C)C(=O)N[C@@H](CSC/C=C(/C)COCc1cccc(C(=O)c2ccccc2)c1)C(=O)OC)C(C)C (H-YIIKGVFWDPAC(X2)-OMe)
Saccharomyces cerevisiae [3]
  inhibition zone (IZ): Active

## CC[C@H](C)[C@H](NC(=O)[C@@H](NC(=O)[C@@H](N)Cc1ccc(O)cc1)[C@@H](C)CC)C(=O)N[C@@H](CCCCN)C(=O)NCC(=O)N[C@H](C(=O)N[C@@H](Cc1ccccc1)C(=O)N[C@@H](Cc1c[nH]c2ccccc12)C(=O)N[C@@H](CC(=O)O)C(=O)N1CCC[C@H]1C(=O)N[C@@H](C)C(=O)N[C@@H](CSC/C=C(/C)CC/C=C(\C)COCc1cccc(C(=O)c2ccccc2)c1)C(=O)OC)C(C)C (H-YIIKGVFWDPAC(X3)-OMe)
Saccharomyces cerevisiae [4]
  inhibition zone (IZ): Active
